Assay results taken from US20250051758A1, “FolA Selection Assay to Identify Strains with Increased Soluble Target Protein Expression” (ABSCI CORPORATION, priority 2021, published 2025).

Test system: E. coli harboring plasmid encoding mCherry-FolA fusion under the control of pBAD promoter

SMILES: Cc1cc(NS(=O)(=O)c2ccc(N)cc2)no1 [sulfamethoxazole]
- Inhibition of growth by sulfamethoxazole: did not inhibit growth
- Sulfamethoxazole concentration at which sensitivity to trimethoprim is restored: > 2 µg/mL

SMILES: COc1cc(Cc2cnc(N)nc2N)cc(OC)c1OC [trimethoprim]
- Resistance of cells to trimethoprim: highly resistant
- Synergy of trimethoprim with sulfamethoxazole: strong synergy
